Results: US20250215010A1, “DIAZABICYCLOOCTANE DERIVATIVES USEFUL AS MATRIX METALLOPROTEINASE INHIBITORS” (VASA THERAPEUTICS SPOLKA Z OGRANICZONA ODPOWIEDZIALNOSCIA, priority 2022, published 2025)
Like-named read-outs stand apart in the source and are kept apart here.

Key:
Format in all cases: biochemical
MMP1 = target: T1, MMP1 (Homo sapiens, UniProt P03956); test: MMP-1 colorimetric inhibition assay (Enzo kit BML-AK404); conditions: thiopeptide substrate, absorbance 415 nm; read-out: MMP 1 IC50 class
T1 sequence (P03956 100-269 limits assumed): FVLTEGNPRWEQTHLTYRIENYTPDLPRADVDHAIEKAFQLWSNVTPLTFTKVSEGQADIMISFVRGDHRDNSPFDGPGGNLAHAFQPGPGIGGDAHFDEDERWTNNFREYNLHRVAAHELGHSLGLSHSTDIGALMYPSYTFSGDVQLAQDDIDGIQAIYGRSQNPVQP
In short: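 Colorimetric kit run per manufacturer protocol. MMP-1 cleaves a thiopeptide substrate (Ac-PLG-[2-mercapto-4-methylpentanoyl]-LG-OC2H5); released thiol reacts with DTNB, monitored at 415 nm. IC50 (nM) from inhibition curves of normalized values.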

MMP9 = MMP9 (Homo sapiens, UniProt P14780); test: MMP-9 colorimetric inhibition assay (Enzo kit BML-AK410); conditions: thiopeptide substrate, absorbance 415 nm; read-out: MMP 9 IC50 class
In short: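 Colorimetric thioester-substrate assay: hydrolysis of Ac-PLG-[2-mercapto-4-methylpentanoyl]-LG-OC2H5 frees a thiol that reacts with DTNB, read at 415 nm. Run per kit protocol. IC50 (nM) taken from inhibition curves of normalized values.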

MMP13 = target: T2, MMP13 (Homo sapiens, UniProt P45452); test: MMP-13 colorimetric inhibition assay (Enzo kit BML-AK412); conditions: thiopeptide substrate, absorbance 415 nm; read-out: MMP 13 IC50 class
T2 construct: purchased Enzo Life Sciences, Inc. BML-AK412
In short: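 Thiopeptide chromogenic substrate (Ac-PLG-[2-mercapto-4-methylpentanoyl]-LG-OC2H5); MMP-13 hydrolysis of the thioester yields a thiol that reacts with DTNB, read at 415 nm. IC50 values (nM) derived from inhibition curves of normalized data.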

MMP2 = target: T3, MMP2 (Homo sapiens, UniProt P08253); test: MMP-2 colorimetric inhibition assay (Enzo kit BML-AK408); conditions: thiopeptide substrate, absorbance 415 nm; read-out: MMP 2 IC50 class
T3 sequence (P08253 110-660): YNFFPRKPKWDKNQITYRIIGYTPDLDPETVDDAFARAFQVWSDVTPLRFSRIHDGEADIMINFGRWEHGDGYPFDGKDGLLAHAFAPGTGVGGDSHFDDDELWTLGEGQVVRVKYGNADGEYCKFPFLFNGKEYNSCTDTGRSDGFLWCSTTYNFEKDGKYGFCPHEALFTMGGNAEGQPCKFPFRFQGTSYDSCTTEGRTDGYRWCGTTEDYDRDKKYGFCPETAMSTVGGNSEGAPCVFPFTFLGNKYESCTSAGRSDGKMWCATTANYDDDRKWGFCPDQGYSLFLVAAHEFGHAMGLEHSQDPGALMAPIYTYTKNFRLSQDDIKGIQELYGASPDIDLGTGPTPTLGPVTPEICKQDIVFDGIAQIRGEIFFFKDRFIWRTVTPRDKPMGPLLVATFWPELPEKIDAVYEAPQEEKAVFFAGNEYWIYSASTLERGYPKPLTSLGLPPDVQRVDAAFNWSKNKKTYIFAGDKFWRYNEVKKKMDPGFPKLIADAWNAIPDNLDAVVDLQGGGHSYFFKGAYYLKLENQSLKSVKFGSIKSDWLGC
In short: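 Cleavage of the thiopeptide Ac-PLG-[2-mercapto-4-methylpentanoyl]-LG-OC2H5 releases a sulfhydryl that reacts with DTNB, read at 415 nm per the kit protocol. IC50 values (nM) come from inhibition curves of normalized data.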

ADAM17 (TACE) = ADAM17 (TACE) (Homo sapiens, UniProt P78536); test: TACE fluorometric inhibition assay (Enzo kit BML-AK310); conditions: quenched fluorogenic peptide, ex/em 320/420 nm; read-out: TACE IC50 class
In short: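 Kit-based TACE assay run per manufacturer's protocol, using quenched fluorogenic peptide Mca-PLAQAV-Dpa-RSSSR-NH2 whose cleavage raises Mca fluorescence. Signal read at ex/em 320/420 nm; IC50 (nM) derived from inhibition curves of normalized values.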

ADAM10 = target: T4, ADAM10 (Homo sapiens, UniProt O14672); test: SensoLyte 520 ADAM10 fluorometric activity assay (AnaSpec AS-72226)
T4 construct: purchased AnaSpec, Inc. AS-72226
T4 sequence (O14672 214-748): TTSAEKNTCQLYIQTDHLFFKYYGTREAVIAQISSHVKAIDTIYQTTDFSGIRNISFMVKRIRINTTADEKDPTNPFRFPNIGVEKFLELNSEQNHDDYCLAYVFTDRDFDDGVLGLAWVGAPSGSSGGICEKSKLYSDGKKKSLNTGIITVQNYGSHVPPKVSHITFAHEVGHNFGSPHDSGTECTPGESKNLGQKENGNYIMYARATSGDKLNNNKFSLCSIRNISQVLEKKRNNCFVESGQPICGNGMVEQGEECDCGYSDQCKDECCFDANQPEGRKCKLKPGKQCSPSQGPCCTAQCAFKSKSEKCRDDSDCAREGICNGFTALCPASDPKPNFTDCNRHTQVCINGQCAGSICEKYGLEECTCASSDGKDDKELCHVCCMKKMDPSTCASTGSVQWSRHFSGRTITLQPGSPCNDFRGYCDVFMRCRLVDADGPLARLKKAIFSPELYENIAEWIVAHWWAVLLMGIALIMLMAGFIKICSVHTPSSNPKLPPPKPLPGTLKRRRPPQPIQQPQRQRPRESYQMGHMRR
Description: The inhibitory activities of the compounds of the invention were assessed in 96-well microplate format using MMP1, MMP2, MMP9 and MMP13 colorimetric assay kits and TACE fluorometric assay kit from Enzo Life Sciences, Inc. The inhibitory effect of the compounds of the invention on ADAM10 activity were evaluated in 96-well microplate format using fluorometric assay from AnaSpec, Inc.
SensoLyte® 520 ADAM10 Activity Assay Kit (catalog #AS-72226) is a complete assay system designed to screen ADAM10 inhibitors using FRET-based peptide substrate containing the 5-FAM/QXL™ 520 fluorophore/quencher pair. The fluorescence of 5-FAM is quenched by QXL™ 520 and recovered upon cleavage of the peptide by active ADAM10.
The inhibitory activity of the compounds of the invention against ADAM10 was tested according to the manufacturer's assay protocol and the fluorescence was monitored at excitation/emission wavelengths=495 nm/520 nm using Tecan Infinite® 200 Pro F Nano^+ microplate reader.
The normalized values were analyzed using GraphPadPrism 9 for Windows (GraphPad Software, San Diego, CA, USA) software by plotting inhibition curves and determining the IC50 values (in nM).

[1] = FRET peptide substrate, ex/em 495/520 nm, read-out: ADAM 10 IC50 class

Chain of MMP9 (P14780 94-707): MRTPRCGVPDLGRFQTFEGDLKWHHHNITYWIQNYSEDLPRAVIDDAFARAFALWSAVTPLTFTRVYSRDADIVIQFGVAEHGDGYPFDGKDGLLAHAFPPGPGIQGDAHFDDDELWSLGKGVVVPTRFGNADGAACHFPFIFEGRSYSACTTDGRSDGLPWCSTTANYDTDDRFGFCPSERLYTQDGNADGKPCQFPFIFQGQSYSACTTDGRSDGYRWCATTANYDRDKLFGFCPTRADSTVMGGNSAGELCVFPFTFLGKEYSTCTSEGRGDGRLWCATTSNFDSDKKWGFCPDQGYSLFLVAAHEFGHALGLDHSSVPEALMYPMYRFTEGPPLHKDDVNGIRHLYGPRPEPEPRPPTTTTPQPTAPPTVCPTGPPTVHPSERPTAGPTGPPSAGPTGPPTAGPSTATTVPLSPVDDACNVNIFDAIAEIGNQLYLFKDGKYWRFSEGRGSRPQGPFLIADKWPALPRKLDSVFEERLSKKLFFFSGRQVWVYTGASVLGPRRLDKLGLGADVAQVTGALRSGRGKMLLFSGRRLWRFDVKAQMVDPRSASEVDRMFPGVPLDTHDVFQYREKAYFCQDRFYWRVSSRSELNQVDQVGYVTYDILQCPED
Chain of ADAM17 (TACE) (P78536 215-477 limits assumed): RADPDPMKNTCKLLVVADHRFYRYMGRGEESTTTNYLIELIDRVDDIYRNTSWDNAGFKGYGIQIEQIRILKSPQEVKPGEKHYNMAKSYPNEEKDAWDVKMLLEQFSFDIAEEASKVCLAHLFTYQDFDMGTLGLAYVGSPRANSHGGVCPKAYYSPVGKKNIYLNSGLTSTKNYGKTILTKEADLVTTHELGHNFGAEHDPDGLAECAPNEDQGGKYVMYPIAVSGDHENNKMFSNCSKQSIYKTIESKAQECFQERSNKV

`COCCOC(=O)N1[C@@H]2CC[C@H]1[C@H](C(=O)NO)N(S(=O)(=O)c1ccc(Oc3ccc(F)cc3)nc1)C2` [Example 1, (1S,2R,5R)-2-methoxyethyl 3-((6-(4-fluorophenoxy)pyridin-3-yl)sulfonyl)-2-(hydroxycarbamoyl)-3,8-diazabicyclo[3.2.1]octane-8-carboxylate] was tested, and the IC50 (MMP1) was 50 to 1000 nM, the IC50 (MMP9) was less than 50 nM and the IC50 (MMP13) was less than 50 nM. The IC50 (MMP2) was less than 50 nM, the IC50 (ADAM17 (TACE)) was 1000 to 10000 nM and the IC50 (ADAM10; [1]) was 1000 to 10000 nM.
Work on `COCCOC(=O)N1[C@@H]2CC[C@H]1[C@H](C(=O)NO)N(S(=O)(=O)c1ccc(Oc3ccc(F)cc3)c(F)c1)C2` [Example 5, 2-methoxyethyl (1S,2R,5R)-3-((3-fluoro-4-(4-fluoro-phenoxy)phenyl)-sulfonyl)-2-(hydroxycarbamoyl)-3,8-diazabicyclo[3.2.1]-octane-8-carboxylate] yielded an IC50 (MMP1) of 50 to 1000 nM, an IC50 (MMP9) of less than 50 nM and an IC50 (MMP13) of less than 50 nM. It also gave an IC50 (MMP2) of less than 50 nM, an IC50 (ADAM17 (TACE)) of 50 to 1000 nM and an IC50 (ADAM10) of 50 to 1000 nM.
With `COCCOC(=O)N1[C@@H]2CC[C@H]1[C@H](C(=O)NO)N(S(=O)(=O)c1ccc(Oc3ccc(F)cn3)cc1)C2` [Example 7, 2-methoxyethyl (1S,2R,5R)-3-((4-((5-fluoropyridin-2-yl)oxy)phenyl)-sulfonyl)-2-(hydroxycarbamoyl)-3,8-diazabicyclo-[3.2.1]octane-8-carboxylate] the IC50 (MMP1) was 50 to 1000 nM, the IC50 (MMP9) was less than 50 nM and the IC50 (MMP13) was less than 50 nM. For the same compound, the IC50 (MMP2) was less than 50 nM, the IC50 (ADAM17 (TACE)) was 50 to 1000 nM and the IC50 (ADAM10; [1]) was 50 to 1000 nM.
In the case of `COCCOC(=O)N1[C@@H]2CC[C@H]1[C@H](C(=O)NO)N(S(=O)(=O)c1ccc(Oc3ccc(Cl)cc3)nc1)C2` [Example 8, 2-methoxyethyl (1S,2R,5R)-3-((6-(4-chlorophenoxy)pyridin-3-yl)sulfonyl)-2-(hydroxycarbamoyl)-3,8-diazabicyclo-[3.2.1]octane-8-carboxylate], the IC50 (MMP1) is reported as 50 to 1000 nM, the IC50 (MMP9) is reported as less than 50 nM and the IC50 (MMP13) is reported as less than 50 nM. For the same compound, the IC50 (MMP2) was less than 50 nM, the IC50 (ADAM17 (TACE)) was 50 to 1000 nM and the IC50 (ADAM10; [1]) was 1000 to 10000 nM.
In the case of `COCCOC(=O)N1[C@@H]2CC[C@H]1[C@H](C(=O)NO)N(S(=O)(=O)c1ccc(Oc3ccc(Cl)c(F)c3)nc1)C2` [Example 9, 2-methoxyethyl (1S,2R,5R)-3-((6-(4-chloro-3-fluoro-phenoxy)pyridin-3-yl)sulfonyl)-2-(hydroxycarbamoyl)-3,8-diaza-bicyclo[3.2.1]octane-8-carboxylate], the IC50 (MMP1) is reported as 50 to 1000 nM, the IC50 (MMP9) is reported as less than 50 nM and the IC50 (MMP13) is reported as less than 50 nM. For the same compound, the IC50 (MMP2) was less than 50 nM, the IC50 (ADAM17 (TACE)) was 50 to 1000 nM and the IC50 (ADAM10; [1]) was 1000 to 10000 nM.
With `COCCOC(=O)N1[C@@H]2CC[C@H]1[C@H](C(=O)NO)N(S(=O)(=O)N1CCN(Cc3ccc(OC)cc3)CC1)C2` [Example 77, 2-methoxyethyl (1S,2R,5R)-2-(hydroxycarbamoyl)-3-((4-(4-methoxybenzyl)piperazin-1-yl)sulfonyl)-3,8-diazabicyclo[3.2.1]octane-8-carboxylate] the IC50 (MMP1) was greater than 10000 nM, the IC50 (MMP9) was 50 to 1000 nM and the IC50 (MMP13) was 1000 to 10000 nM. For the same compound, the IC50 (MMP2) was 50 to 1000 nM and the IC50 (ADAM17 (TACE)) was 1000 to 10000 nM.
`COCCOC(=O)N1[C@@H]2CC[C@H]1[C@H](C(=O)NO)N(S(=O)(=O)N1CCN(C(=O)c3ccc(Cl)cc3)CC1)C2` [Example 78, 2-methoxyethyl (1S,2R,5R)-3-((4-(4-chlorobenzoyl)piperazin-1-yl)sulfonyl)-2-(hydroxycarbamoyl)-3,8-diazabicyclo[3.2.1]octane-8-carboxylate] showed an IC50 (MMP1) greater than 10000 nM, an IC50 (MMP9) of 1000 to 10000 nM and an IC50 (MMP13) of 1000 to 10000 nM. The IC50 (MMP2) was 1000 to 10000 nM and the IC50 (ADAM17 (TACE)) was 1000 to 10000 nM.
`COCCOC(=O)N1[C@@H]2CC[C@H]1[C@H](C(=O)NO)N(S(=O)(=O)c1ccc(Oc3nc4ccccc4o3)c(F)c1)C2` [Example 79, 2-methoxyethyl (1S,2R,5R)-3-((4-(benzo[d]oxazol-2-yloxy)-3-fluorophenyl)sulfonyl)-2-(hydroxycarbamoyl)-3,8-diazabicyclo[3.2.1]octane-8-carboxylate] showed an IC50 (MMP1) greater than 10000 nM, an IC50 (MMP9) of 1000 to 10000 nM and an IC50 (MMP13) of 50 to 1000 nM. The IC50 (MMP2) was 50 to 1000 nM and the IC50 (ADAM17 (TACE)) was 1000 to 10000 nM.
Compound `COCCOC(=O)N1[C@@H]2CC[C@H]1[C@H](C(=O)NO)N(S(=O)(=O)c1ccc(Oc3nc4ccc(Cl)cc4o3)c(F)c1)C2` [Example 80, 2-methoxyethyl (1S,2R,5R)-3-((4-((6-chlorobenzo[d]-oxazol-2-yl)oxy)-3-fluorophenyl)-sulfonyl)-2-(hydroxycarbamoyl)-3,8-diazabicyclo-[3.2.1]octane-8-carboxylate] has an IC50 (MMP1) greater than 10000 nM, an IC50 (MMP9) of 1000 to 10000 nM and an IC50 (MMP13) of 1000 to 10000 nM. The IC50 (MMP2) was 1000 to 10000 nM and the IC50 (ADAM17 (TACE)) was 1000 to 10000 nM.
For `COCCOC(=O)N1[C@@H]2CC[C@H]1[C@H](C(=O)NO)N(S(=O)(=O)c1ccc(Oc3nc4cc(Cl)ccc4o3)c(F)c1)C2` [Example 81, 2-methoxyethyl (1S,2R,5R)-3-((4-((5-chlorobenzo[d]-oxazol-2-yl)oxy)-3-fluorophenyl)sulfonyl)-2-(hydroxy-carbamoyl)-3,8-diazabicyclo[3.2.1]-octane-8-carboxylate], the IC50 (MMP1) was greater than 10000 nM, the IC50 (MMP9) was 1000 to 10000 nM and the IC50 (MMP13) was greater than 10000 nM. For the same compound, the IC50 (MMP2) was greater than 10000 nM and the IC50 (ADAM17 (TACE)) was 1000 to 10000 nM.
In the case of `COCCOC(=O)N1[C@@H]2CC[C@H]1[C@H](C(=O)NO)N(S(=O)(=O)c1ccc(Oc3nc4ccc(F)cc4o3)c(F)c1)C2` [Example 82, 2-methoxyethyl (1S,2R,5R)-3-((3-fluoro-4-((6-fluoro-benzo[d]oxazol-2-yl)oxy)phenyl)-sulfonyl)-2-(hydroxycarbamoyl)-3,8-diazabicyclo-[3.2.1]octane-8-carboxylate], the IC50 (MMP1) is reported as greater than 10000 nM, the IC50 (MMP9) is reported as 1000 to 10000 nM and the IC50 (MMP13) is reported as 1000 to 10000 nM. For the same compound, the IC50 (MMP2) was 1000 to 10000 nM and the IC50 (ADAM17 (TACE)) was 50 to 1000 nM.
